EC50 and IC50 data for one substance are collected here from US6465641B1, “One pot synthesis of 5′-hydroxy phosphorylated nucleoside derivatives, and compounds formed thereby” (Parker Hughes Institute, priority 1999, dated 2002).

One test relates to sperm. The settings on record: read-out: EC50 value in sperm motility assays.
The test system of the next test is HIV. The following applies: read-out: IC50 value in HIV replication assays.

For the substance “5-bromo-6-methoxy-5,6-dihydro-AZT-5′-(p-bromophenyl methoxyalaninyl phosphate)”, the EC50 with sperm was 2800 nM. Moreover, the IC50 in the test on HIV amounted to 5 nM.

In general, EC50 refers to the concentration at which the effect is half-maximal. As usually defined, the IC50 is the concentration that inhibits the measured activity by half.
